SMILES strings stand for the structures. Where only a bound is given, the exact number is not on record here.

The nature of series [1]: CC50 assay in the anti-HCV replicon assay (CellTiter-Glo). Particulars: human, Huh-7 hepatoma cells harbouring an HCV replicon; Huh-7 HCV replicon cells, 3 days incubation, CellTiter-Glo luminescence. The class given is cell-based, human. The method, boiled down:
(§1)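 Huh-7 cells harbouring an HCV replicon (6000/well) incubated 3 days at 37° C with 3-fold serially diluted compound (0.5% DMSO final where used). EC50 from luciferase luminescence of lysed cells; CC50 from CellTiter-Glo luminescence in parallel plates.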

Another series deals with HCV replicon. The experiment in a line: Anti-HCV replicon assay, EC50 (luciferase readout). The series is classed as cell-based. Particulars: Hepatitis C virus, 72 h; Huh-7 HCV replicon cells, 3 days incubation, luciferase luminescence. A digest of the protocol:
as §1

Regarding `CC(C)Oc1nc(N)nc2ccc(-c3ccc(C(=O)Nc4ccc(F)cc4)cc3)cc12` [Example 179, 4-(2-Amino-4-isopropoxy-quinazolin-6-yl)-N-(4-fluoro-phenyl)-benzamide], in series [1], the half-maximal cytotoxic concentration (CC50) (usually the concentration that lowers cell viability or growth by half) at 3 days is below 10 µM. The EC50 (commonly the concentration giving half of the maximal effect) with HCV replicon is 0.3 to 1 µM.
For `CC(C)Oc1nc(N)nc2ccc(-c3ccc(C(=O)N4CCSCC4)cc3)cc12` [Example 180, [4-(2-Amino-4-isopropoxy-quinazolin-6-yl)-phenyl]-thiomorpholin-4-yl-methanone] the same measures were 10 to 20 µM and 1 to 10 µM.
In the same order, the values of `CC(C)Oc1nc(N)nc2ccc(-c3ccc(C(=O)NC4=NCCS4)cc3)cc12` [Example 181, 4-(2-Amino-4-isopropoxy-quinazolin-6-yl)-N-(4,5-dihydro-thiazol-2-yl)-benzamide] are 10 to 20 µM and 0.3 to 1 µM.
For `CNC(=O)c1ccc(-c2ccc3nc(N)nc(OC(C)C)c3c2)cc1Cl` [Example 182, 4-(2-Amino-4-isopropoxy-quinazolin-6-yl)-2-chloro-N-methyl-benzamide] the same measures were above 20 µM and below 0.3 µM.
Turning to `CC(C)Oc1nc(N)nc2ccc(-c3ccc(C(=O)NC4CC4)c(Cl)c3)cc12` [Example 183, 4-(2-Amino-4-isopropoxy-quinazolin-6-yl)-2-chloro-N-cyclopropyl-benzamide], the CC50 at 3 days in series [1] was above 20 µM. Besides, the EC50 with HCV replicon was 0.3 to 1 µM.
In the same order, the values of `CC(C)Oc1nc(N)nc2ccc(-c3cccc(O)c3)cc12` [Example 184, 3-(2-Amino-4-isopropoxy-quinazolin-6-yl)-phenol] are below 10 µM and 0.3 to 1 µM.
Consider `CC(C)Oc1nc(N)nc2ccc(-c3ccc(C(=O)NC4CC4)cc3)cc12` [Example 185, 4-(2-Amino-4-isopropoxy-quinazolin-6-yl)-N-cyclopropyl-benzamide], for which the CC50 at 3 days in series [1] was below 10 µM. Besides, the EC50 with HCV replicon was below 0.3 µM.
In the same order, the values of `CNC(=O)c1cccc(-c2ccc3nc(N)nc(OC(C)C)c3c2)c1` [Example 186, 3-(2-Amino-4-isopropoxy-quinazolin-6-yl)-N-methyl-benzamide] are 10 to 20 µM and 0.3 to 1 µM.
For `CCOc1nc(N)nc2ccc(-c3ccc(-c4nnc(C)o4)cc3)cc12` [Example 187, 4-Ethoxy-6-[4-(5-methyl-[1,3,4]oxadiazol-2-yl)-phenyl]-quinazolin-2-ylamine] the same measures were above 20 µM and 1 to 10 µM.
For `CC(C)CNC(=O)c1ccc(-c2ccc3nc(N)nc(OCCO)c3c2)cc1` [Example 188, 4-[2-Amino-4-(2-hydroxy-ethoxy)-quinazolin-6-yl]-N-isobutyl-benzamide] the same measures were above 20 µM and 1 to 10 µM.
In turn, `Nc1nc(OCCO)c2cc(-c3ccc(C(=O)NC4CCCC4)cc3)ccc2n1` [Example 189, 4-[2-Amino-4-(2-hydroxy-ethoxy)-quinazolin-6-yl]-N-cyclopentyl-benzamide] registered a CC50 at 3 days in series [1] above 20 µM. In the series with HCV replicon, this compound displayed an EC50 of 1 to 10 µM.
In the same order, the values of `CC(C)NC(=O)c1ccc(-c2ccc3nc(N)nc(OCCO)c3c2)cc1` [Example 190, 4-[2-Amino-4-(2-hydroxy-ethoxy)-quinazolin-6-yl]-N-isopropyl-benzamide] are above 20 µM and 1 to 10 µM.
Turning to `CONC(=O)c1ccc(-c2ccc3nc(N)nc(OCCO)c3c2)cc1` [Example 191, 4-[2-Amino-4-(2-hydroxy-ethoxy)-quinazolin-6-yl]-N-methoxy-benzamide], the CC50 at 3 days in series [1] was above 20 µM. Further, in the series with HCV replicon, the EC50 was in the range of 1 to 10 µM.
Compound `Nc1nc(OCCO)c2cc(-c3ccc(C(=O)N4CCSC4)cc3)ccc2n1` [Example 192, {4-[2-Amino-4-(2-hydroxy-ethoxy)-quinazolin-6-yl]-phenyl}-thiazolidin-3-yl-methanone] had a CC50 at 3 days in series [1] above 20 µM. The same compound returned an EC50 with HCV replicon of 1 to 10 µM.
On to `Nc1nc(OCCO)c2cc(-c3ccc(O)cc3)ccc2n1` [Example 193, 4-[2-Amino-4-(2-hydroxy-ethoxy)-quinazolin-6-yl]-phenol], for which, in series [1], the CC50 at 3 days is above 20 µM. This compound also had an EC50 in the series on HCV replicon of 1 to 10 µM.
`Nc1nc(OCCO)c2cc(-c3cccc(O)c3)ccc2n1` [Example 194, 3-[2-Amino-4-(2-hydroxy-ethoxy)-quinazolin-6-yl]-phenol] gave a CC50 at 3 days in series [1] of 10 to 20 µM. For the same compound, the EC50 in the series with HCV replicon is 1 to 10 µM.
For `Nc1nc(OCCO)c2cc(-c3ccc(C(=O)NC4CC4)cc3)ccc2n1` [Example 195, 4-[2-Amino-4-(2-hydroxy-ethoxy)-quinazolin-6-yl]-N-cyclopropyl-benzamide] the same measures were above 20 µM and 1 to 10 µM.
For `Nc1nc(OCCF)c2cc(-c3ccc(C(=O)N4CCCCC4)cc3)ccc2n1` [Example 196, {4-[2-Amino-4-(2-fluoro-ethoxy)-quinazolin-6-yl]-phenyl}-piperidin-1-yl-methanone] the same measures were above 20 µM and 1 to 10 µM.
Turning to `Nc1nc(OCCF)c2cc(-c3ccc(C(=O)NCc4ccccc4)cc3)ccc2n1` [Example 197, 4-[2-Amino-4-(2-fluoro-ethoxy)-quinazolin-6-yl]-N-benzyl-benzamide], the CC50 at 3 days in series [1] lay in the range of 10 to 20 µM. Also, the EC50 in the series with HCV replicon lay within 1 to 10 µM.
`CC(C)CNC(=O)c1ccc(-c2ccc3nc(N)nc(OCCF)c3c2)cc1` [Example 198, 4-[2-Amino-4-(2-fluoro-ethoxy)-quinazolin-6-yl]-N-isobutyl-benzamide]: the CC50 at 3 days in series [1] is 10 to 20 µM. In the series on HCV replicon, this compound displayed an EC50 of 1 to 10 µM.
In the same order, the values of `CCCCNC(=O)c1ccc(-c2ccc3nc(N)nc(OCCF)c3c2)cc1` [Example 199, 4-[2-Amino-4-(2-fluoro-ethoxy)-quinazolin-6-yl]-N-butyl-benzamide] are above 20 µM and 1 to 10 µM.
In series [1], `CC(C)(C)NC(=O)c1ccc(-c2ccc3nc(N)nc(OCCF)c3c2)cc1` [Example 200, 4-[2-Amino-4-(2-fluoro-ethoxy)-quinazolin-6-yl]-N-tert-butyl-benzamide] had a CC50 at 3 days above 20 µM. This compound came in with an EC50 in the series with HCV replicon of 1 to 10 µM.
In turn, `Nc1nc(OCCF)c2cc(-c3ccc(C(=O)NC4CCCC4)cc3)ccc2n1` [Example 201, 4-[2-Amino-4-(2-fluoro-ethoxy)-quinazolin-6-yl]-N-cyclopentyl-benzamide] had a CC50 at 3 days in series [1] of 10 to 20 µM. Moreover, the EC50 in the series on HCV replicon lay within 1 to 10 µM.
In the same order, the values of `CC(C)NC(=O)c1ccc(-c2ccc3nc(N)nc(OCCF)c3c2)cc1` [Example 202, 4-[2-Amino-4-(2-fluoro-ethoxy)-quinazolin-6-yl]-N-isopropyl-benzamide] are above 20 µM and 1 to 10 µM.
For `CONC(=O)c1ccc(-c2ccc3nc(N)nc(OCCF)c3c2)cc1` [Example 203, 4-[2-Amino-4-(2-fluoro-ethoxy)-quinazolin-6-yl]-N-methoxy-benzamide] the same measures were above 20 µM and 1 to 10 µM.
With `Nc1nc(OCCF)c2cc(-c3ccc(C(=O)N4CCSC4)cc3)ccc2n1` [Example 204, {4-[2-Amino-4-(2-fluoro-ethoxy)-quinazolin-6-yl]-phenyl}-thiazolidin-3-yl-methanone], the CC50 at 3 days in series [1] was above 20 µM. The EC50 in the series with HCV replicon lay within 1 to 10 µM.
On to `Nc1nc(OCCF)c2cc(-c3ccc(C(=O)N4CCSCC4)cc3)ccc2n1` [Example 205, {4-[2-Amino-4-(2-fluoro-ethoxy)-quinazolin-6-yl]-phenyl}-thiomorpholin-4-yl-methanone], for which the CC50 at 3 days in series [1] was above 20 µM. The compound further registered an EC50 with HCV replicon of 1 to 10 µM.
For `Nc1nc(OCCF)c2cc(-c3ccc(C(=O)NC4=NCCS4)cc3)ccc2n1` [Example 206, 4-[2-Amino-4-(2-fluoro-ethoxy)-quinazolin-6-yl]-N-(4,5-dihydro-thiazol-2-yl)-benzamide] the same measures were above 20 µM and 1 to 10 µM.
`CNC(=O)c1ccc(-c2ccc3nc(N)nc(OCCF)c3c2)cc1Cl` [Example 207, 4-[2-Amino-4-(2-fluoro-ethoxy)-quinazolin-6-yl]-2-chloro-N-methyl-benzamide]: the CC50 at 3 days in series [1] is above 20 µM. Moreover, the EC50 in the series on HCV replicon lay in the range of 1 to 10 µM.
For `Nc1nc(OCCF)c2cc(-c3ccc(C(=O)NC4CC4)c(Cl)c3)ccc2n1` [Example 208, 4-[2-Amino-4-(2-fluoro-ethoxy)-quinazolin-6-yl]-2-chloro-N-cyclopropyl-benzamide] the same measures were above 20 µM and 1 to 10 µM.
The compound `Nc1nc(OCCF)c2cc(-c3ccc(O)cc3)ccc2n1` [Example 209, 4-[2-Amino-4-(2-fluoro-ethoxy)-quinazolin-6-yl]-phenol] showed a 50% cytotoxic concentration (CC50) at 3 days in series [1] above 20 µM. Moreover, the EC50 with HCV replicon was in the range of 1 to 10 µM.
For the compound `Nc1nc(OCCF)c2cc(-c3cccc(O)c3)ccc2n1` [Example 210, 3-[2-Amino-4-(2-fluoro-ethoxy)-quinazolin-6-yl]-phenol], the CC50 at 3 days in series [1] is above 20 µM. Besides, in the series with HCV replicon, the EC50 lay in the range of 1 to 10 µM.
For `Nc1nc(OCCF)c2cc(-c3ccc(C(=O)NC4CC4)cc3)ccc2n1` [Example 211, 4-[2-Amino-4-(2-fluoro-ethoxy)-quinazolin-6-yl]-N-cyclopropyl-benzamide] the same measures were above 20 µM and 0.3 to 1 µM.
In the same order, the values of `CNC(=O)c1ccc(-c2ccc3nc(N)nc(OCCF)c3c2)cc1` [Example 212, 4-[2-Amino-4-(2-fluoro-ethoxy)-quinazolin-6-yl]-N-methyl-benzamide] are above 20 µM and 1 to 10 µM.
Compound `Nc1nc(OC[C@@H]2CCCO2)c2cc(-c3ccc(C(=O)NC4CC4)cc3)ccc2n1` [Example 213] had a CC50 at 3 days in series [1] above 20 µM. The compound also came in with an EC50 in the series with HCV replicon below 0.3 µM.
`CCOc1nc(N)nc2ccc(-c3ccc(C(N)=O)cc3)cc12` [Example 214, 4-(2-Amino-4-ethoxy-quinazolin-6-yl)-benzamide] returned a CC50 at 3 days in series [1] above 20 µM. Further, in the series on HCV replicon, the EC50 is below 0.3 µM.

Source of the values: US8673929B2, “4,6-di- and 2,4,6-trisubstituted quinazoline derivatives and pharmaceutical compositions useful for treating viral infections” (priority 2006, dated 2014).
